pKi: −log10 of the molar value.

In general, pKi refers to the negative decadic logarithm of the Ki, by convention in mol/L. A lower pKi goes with a large Ki.

In this test the target is WDR5 (Homo sapiens, UniProt P61964). Nature of the test: Competition-based fluorescence polarization anisotropy assay. The note with it: binding to WDR5; displacement of FITC-labeled small molecule probe (analogous to Example J2 or HCH-25) or peptide probe FITC-AHx-SEEEIDVVSV; pH 6.0; Ki converted from IC50. The gist of the method: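 Competition fluorescence polarization anisotropy binding to WDR5 using a FITC-labeled peptide probe or a fluorescently labeled small-molecule probe. Buffer: 200 mM phosphate, 300 mM NaCl, 0.5 mM TCEP, 0.1% Chaps, pH 6.0. Displacement data were converted to Ki.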
`CS(=O)(=O)c1cc(Cl)cc(NS(=O)(=O)c2cc(Br)cc(Cl)c2O)c1` [Example S8, 5-Bromo-3-chloro-N-(3-chloro-5-(methylsulfonyl)phenyl)-2-hydroxybenzenesulfonamide] gave a negative-log Ki (pKi) of 6.77.
The value for `CS(=O)(=O)c1cc(NS(=O)(=O)c2cc(Br)ccc2O)cc(C2CC2)c1` [Example S9, 5-Bromo-N-(3-cyclopropyl-5-(methylsulfonyl)phenyl)-2-hydroxybenzenesulfonamide] was 5.99; that for `CS(=O)(=O)c1cc(NS(=O)(=O)c2cc(Br)cc(Cl)c2O)cc(C2CC2)c1` [Example S10, 5-Bromo-3-chloro-N-(3-cyclopropyl-5-(methylsulfonyl)phenyl)-2-hydroxybenzenesulfonamide] was 6.77; that for `CS(=O)(=O)c1cc(NS(=O)(=O)c2cc(Br)ccc2O)cc(OC(F)(F)F)c1` [Example S11, 5-Bromo-2-hydroxy-N-(3-(methylsulfonyl)-5-(trifluoromethoxy)phenyl)benzenesulfonamide] was 6.09.
The value for `CS(=O)(=O)c1cc(NS(=O)(=O)c2cc(Br)cc(Cl)c2O)cc(OC(F)(F)F)c1` [Example S12, 5-Bromo-3-chloro-2-hydroxy-N-(3-(methylsulfonyl)-5-(trifluoromethoxy)phenyl)benzenesulfonamide] was 7.15; that for `CS(=O)(=O)c1cc(NS(=O)(=O)c2cc(Br)ccc2O)cc(S(F)(F)(F)(F)F)c1` [Example S13, 5-Bromo-2-hydroxy-N-(3-(methylsulfonyl)-5-(pentafluoro-λ^6-sulfaneyl)phenyl)benzenesulfonamide] was 6.38; that for `CS(=O)(=O)c1cc(NS(=O)(=O)c2cc(Br)cc(Cl)c2O)cc(S(F)(F)(F)(F)F)c1` [Example S14, 5-Bromo-3-chloro-2-hydroxy-N-(3-(methylsulfonyl)-5-(pentafluoro-λ^6-sulfaneyl)phenyl)benzenesulfonamide] was 7.52.
The value for `O=S(=O)(Nc1cc(C2CC2)cc(S(=O)(=O)C2CCCO2)c1)c1cc(Br)ccc1O` (centres unmarked) [Example S15-2] was 5.06; that for `O=S(=O)(Nc1cc(C2CC2)cc(S(=O)(=O)C2CCCO2)c1)c1cc(Br)cc(Cl)c1O` (centres unmarked) [Example S16, 5-Bromo-3-chloro-N-(3-cyclopropyl-5-((tetrahydrofuran-2-yl)sulfonyl)phenyl)-2-hydroxybenzenesulfonamide] was 6.70.
For the compound `CS(=O)(=O)c1cc(Cl)cc(NS(=O)(=O)c2cc(Br)cc(Cl)c2O)c1O` [Example S16-2, 5-Bromo-3-chloro-N-(5-chloro-2-hydroxy-3-(methylsulfonyl)phenyl)-2-hydroxybenzenesulfonamide], the pKi is 7.70.
`CS(=O)(=O)c1cc(Cl)cc(NS(=O)(=O)c2cc(Br)ccc2O)c1O` [Example S17, 5-Bromo-N-(5-chloro-2-hydroxy-3-(methylsulfonyl)phenyl)-2-hydroxybenzenesulfonamide] showed a negative-log Ki (pKi) of 7.05.
The value for `CS(=O)(=O)c1cc(S(F)(F)(F)(F)F)cc(NS(=O)(=O)c2cc(Br)cc(Cl)c2O)c1O` [Example S18, 5-Bromo-3-chloro-2-hydroxy-N-(2-hydroxy-3-(methylsulfonyl)-5-(pentafluoro-λ^6-sulfaneyl)phenyl)benzenesulfonamide] was 7.52.
The compound `CS(=O)(=O)c1cc(S(F)(F)(F)(F)F)cc(NS(=O)(=O)c2cc(Br)ccc2O)c1O` [Example S19, 5-Bromo-2-hydroxy-N-(2-hydroxy-3-(methylsulfonyl)-5-(pentafluoro-λ^6-sulfaneyl)phenyl)benzenesulfonamide] showed a negative logarithm of the Ki (pKi) of 7.00. Compared with the last compound, the pKi is 0.52 log units lower.
The value for `CS(=O)(=O)c1cc(S(F)(F)(F)(F)F)cc(NS(=O)(=O)c2ccc(Br)cc2O)c1O` [Example S20, 4-Bromo-2-hydroxy-N-(2-hydroxy-3-(methylsulfonyl)-5-(pentafluoro-λ6-sulfaneyl)phenyl)benzenesulfonamide] was 5.37; that for `CCS(=O)(=O)c1cc(Cl)cc(NS(=O)(=O)c2cc(Br)cc(Cl)c2O)c1O` [Example S21, 5-Bromo-3-Chloro-N-(5-chloro-3-(ethylsulfonyl)-2-hydroxyphenyl)-2-hydroxybenzenesulfonamide] was 6.62.
Regarding `CCS(=O)(=O)c1cc(Cl)cc(NS(=O)(=O)c2cc(Br)ccc2O)c1O` [Example S22, 5-Bromo-N-(5-chloro-3-(ethylsulfonyl)-2-hydroxyphenyl)-2-hydroxybenzenesulfonamide], the pKi was 6.60.
As to `CC(C)S(=O)(=O)c1cc(Cl)cc(NS(=O)(=O)c2cc(Br)cc(Cl)c2O)c1O` [Example S23.1, 5-Bromo-3-chloro-N-(5-chloro-2-hydroxy-3-(isopropylsulfonyl)phenyl)-2-hydroxybenzenesulfonamide], the pKi is 6.89.
On to `CC(C)[S+]([O-])c1cc(Cl)cc(NS(=O)(=O)c2cc(Br)cc(Cl)c2O)c1O` (centres unmarked) [Example S23.2, 5-Bromo-3-chloro-N-(5-chloro-2-hydroxy-3-(isopropylsulfinyl)phenyl)-2-hydroxybenzenesulfonamide], for which the pKi is 6.48.
The result for `CC(C)[S+]([O-])c1cc(Cl)cc(NS(=O)(=O)c2cc(Br)ccc2O)c1O` (centres unmarked) [Example S23.3, 5-Bromo-N-(5-chloro-2-hydroxy-3-(isopropylsulfinyl)phenyl)-2-hydroxybenzenesulfonamide] reads 6.44; that for `CS(=O)(=O)c1cc(C(F)(F)F)cc(NS(=O)(=O)c2cc(Br)ccc2O)c1O` [Example S25, 5-Bromo-3-2-hydroxy-N-(2-hydroxy-3-(methylsulfonyl)-5-(trifluoromethyl)phenyl)benzenesulfonamide], 7.05.
The result for `CS(=O)(=O)c1cc(C2CC2)cc(NS(=O)(=O)c2cc(Br)cc(Cl)c2O)c1O` [Example S25-2, 5-Bromo-3-chloro-N-(5-cyclopropyl-2-hydroxy-3-(methylsulfonyl)phenyl)-2-hydroxybenzenesulfonamide] reads 7.00; that for `CS(=O)(=O)c1cc(C2CC2)cc(NS(=O)(=O)c2cc(Br)ccc2O)c1O` [Example S26, 5-Bromo-N-(5-cyclopropyl-2-hydroxy-3-(methylsulfonyl)phenyl)-2-hydroxybenzenesulfonamide], 6.62; that for `NS(=O)(=O)c1cc(Cl)cc(NS(=O)(=O)c2cc(Br)cc(Cl)c2O)c1O` [Example S27, 5-Bromo-3-chloro-N-(5-chloro-2-hydroxy-3-sulfamoylphenyl)-2-hydroxybenzenesulfonamide], 6.44.
The value for `CNS(=O)(=O)c1cc(Cl)cc(NS(=O)(=O)c2cc(Br)cc(Cl)c2O)c1O` [Example S28, 5-bromo-3-chloro-N-(5-chloro-2-hydroxy-3-(N-methylsulfamoyl)phenyl)-2-hydroxybenzenesulfonamide] was 4.68.
`CNS(=O)(=O)c1cc(Cl)cc(NS(=O)(=O)c2cc(Br)ccc2O)c1O` [Example S29, 5-bromo-N-(5-chloro-2-hydroxy-3-(N-methylsulfamoyl)phenyl)-2-hydroxybenzenesulfonamide]: the pKi was 4.81.
With `COCCNS(=O)(=O)c1cc(Cl)cc(NS(=O)(=O)c2cc(Br)cc(Cl)c2O)c1O` [Example S30, 5-bromo-3-chloro-N-(5-chloro-2-hydroxy-3-(N-(2-methoxyethyl)sulfamoyl)phenyl)-2-hydroxybenzenesulfonamide], the pKi was 5.52.

For the origin of these results see patent publication US12398097B2, “WDR5-MYC inhibitors” (Vanderbilt University, priority 2019, dated 2025).
